Measured values reported in US12029715B2, “Precursor compounds for providing retinoids of the vitamin A5 pathway and uses thereof” (UNIVERSITY OF DEBRECEN, priority 2015, dated 2024).
Entries after “also recorded” stand apart in the source; their conditions may differ.

How the values were obtained:
[1] = system: C57BL/6N mice; assay: Chronic social defeat stress model, forced swim test; format: in vivo, mouse; conditions: stressed mice, 10 mg/kg i.p. every second day of stress protocol; 10 mg/kg
Method: (§1) The forced swim paradigm was carried out between 1 pm and 4 pm in a 3-litre glass beaker half-filled with water at 22-23° C. (the water depth was 17 cm). All mice were tested only once in this task. To this end, each mouse was lowered gently into the water and the time of immobility was scored during a 6-minute testing period. The mouse was judged immobile when it floated in an upright position and made only small movements to keep its head above the water. After 6 min, the mouse was taken out of the water, left to dry under a red light lamp and returned to its home cage. The immobility scores of each animal were used as an index of despair behavior.
(§2) Social defeat stress procedure was a modified version of the protocol previously described (Berton, McClung et al. 2006). C57BL/6N mice were defeated chronically for 10 consecutive days. Every day they were exposed to the physical contact with an unfamiliar CD1 aggressor in its home cage for maximal interaction time of 5 minutes. After each session of physical stress, C57BL/6N and CD1 mice were separated by a perforated wall and maintained in sensory contact for 24 h. After the last session of stress, mice were transferred into new cages and housed separately throughout the behavioral tests period. C57BL/6N control mice, similarly to the experimental animals, were housed two per cage separated by a metal perforated wall. Every day, they were exposed to the physical contact for 5 minutes.
(§3) For behavioral analysis, 9CDHROL and 9CDHBC were dissolved in ethanol, and then mixed with sunflower oil, so that the final solution contained 3% ethanol. Vehicle treatments consisted of 3% ethanol solution in sunflower oil. For memory studies treatments with 9CDHRA were administered by intraperitoneal injections at volume/weight ratio 3 ml/kg at 7 am and 7 hours before the beginning of testing. For tests with animal model of chronic social defeat, different treatments were administered by intraperitoneal injections at volume/weight ratio 3 ml/kg at 10 mg/kg for each substance between 5-6 pm every second day of stress protocol immediately after the stress session starting from day 1 of the stress protocol.
as §1, with “paradigm (Dalvi and Lucki, 1999)” for “paradigm”, “2-litre” for “3-litre”
as §2, with “(Berton” for “(Berton, McClung”, “C57BL/6N control mice, similarly to the experimental animals, were housed two per cage separated by a metal perforated wall. Every day, they were exposed to the physical contact for 5 minutes.” left out

[2] = system: C57BL/6N mice; assay: Chronic social defeat stress model, sucrose preference test; format: in vivo, mouse; conditions: stressed mice, 10 mg/kg i.p. every second day of stress protocol; 10 mg/kg
Text: This task, designed to measure hedonic behaviors in mice is based on the palatable nature of sucrose observed in a number of mouse strains. On the first day of the test, sucrose-naive mice were placed in individual cages at 11 am and left there with water and food for habituation period. At 5 pm one water bottle was replaced with two bottles: one containing water and another 0.8% sucrose solution. Three hours later (8 pm) the bottles were weighed to measure liquid consumption and were replaced in cages until morning. The measures of an overnight consumption were then carried out for additional day to evaluate sucrose preference. Mice were not water deprived at any moment, in order to measure spontaneous sucrose preference and exclude any potential emotional confounds induced by stress of water deprivation. The sucrose preference was expressed as the percent of sucrose solution consumed with respect to total liquid consumption.
as §2
as §3, with “by intraperitoneal injections at volume/weight ratio 3 ml/kg at 10 mg/kg for each substance between 5-6 pm every second” left out
This task, designed to measure hedonic behavior in mice (Moreau, 1997), is based on the palatable nature of sucrose observed in a number of mouse strains. On the first day of the test, sucrose-naive mice were placed in individual cages at 11 am and left there with water and food for habituation period. At 5 pm one water bottle was replaced with two bottles: one containing water and another 0.8% sucrose solution. Three hours later (8 pm) the bottles were weighed to measure liquid consumption and were replaced in cages until morning. The measures of an overnight consumption were then carried out for additional day to evaluate sucrose preference. Mice were not water deprived at any moment, in order to measure spontaneous sucrose preference and exclude any potential emotional confounds induced by stress of water deprivation. The sucrose preference was expressed as the percent of sucrose solution consumed with respect to total liquid consumption.
Social defeat stress procedure was a modified version of the protocol previously described (Berton et al. 2006). C57BL/6N mice were defeated chronically for 10 consecutive days. […]

[3] = Mouse oral supplementation, retinoid levels in serum, brain and liver (LC-MS); format: in vivo; conditions: mice
Method: For metabolic analyses ATROL, 9CDHROL, 9CDHBC and control solutions were prepared as described above. Single per os application of the dose of 40 mg/kg of each substance was used to treat mice in the evening and samples were collected 11 h later in the light protected conditions, weighted, frozen in liquid nitrogen and stored at −80° C. until analyses. Serum was prepared and immediately stored in brown vials at −80° C., till further analysis.
Accordingly, for sample preparation 100 mg of the material (if samples were under 100 mg, water was added up to the used standard weight: 100 mg) or 100 μl serum was diluted with a threefold volume of isopropanol, the tissues were minced by scissors, vortexed for 10 seconds, put in a ultrasonic bath for 5 minutes, shaken for 6 minutes and centrifuged at 13000 rpm in a Heraeus BIOFUGE Fresco at +4° C. […] The dried extracts were resuspended with 30 μl of methanol—MTBE (50-50) and transferred into the autosampler and 10 μl subsequently analysed.
Mouse brain samples were prepared according to the procedure described above. Briefly, after single per os application of the dose of 40 mg/kg of 9CDHROL (or other cited substances) in the evening mice were sacrificed after 11 hours and tissues samples including brain were dissected under light-protection conditions, weighted, frozen in liquid nitrogen and stored at −80° C. until analyses. Serum was prepared and immediately stored in brown vials at −80° C., till further analysis.
For mouse supplementation experiments we treated n=6 mice per os with 40 mg/kg bw 9CDHROL and 11 h after the treatment the mice were killed and blood, brain and liver was taken. After centrifugation of the drawn blood, serum was obtained.

[4] = system: oligodendrocytes cell line 158N; assay: Metabolic conversion in mouse oligodendrocytes cell culture (LC-MS); format: in vitro ADME
Method: Normal immortalized oligodendrocytes cell line 158N was cultured as previously reported (Feutz et al., 2001). Expediently, cells were cultured in supplemented with 5% calf serum (Invitrogen, France). When cells attained 70% of confluency they were treated with 10^−2 M ethanol solution of one of the following compounds: 9CDHROL, 9CDHROL-acetate, 9CDHRA-ethyl ester. 9CDHRA and ethanol as controls, vehicle treatment. 18 h after treatment cells were collected in amber Eppendorf tubes and stored at −80° C. until analyses. Treatments and cell collection were carried out in light limited conditions to avoid photolysis of retinoids.
(§4) In a slight variant of the method, after reaching confluency of 80% cells were treated with 9CDHROL, 9CDH-retinyl ester (acetate, 9CDHROL-ES), 9CDHRA, 9CDH-retinoyl ester, (ethyl ester, 9CDHRA-ES), ATROL, 9CDHBC, 9CBC and ATBC at a concentration of 10^−6 M or ethanol at corresponding concentration was used as control vehicle treatment. Cells were harvested 18 hours later, centrifuged, weighted, frozen in liquid nitrogen and stored at −80° C. until analyses.
(§5) High performance liquid chromatography mass spectrometry (LC-MS) was carried out as described in Example 4.

[5] = system: human oligodendrocytes cell cultures; assay: Metabolic conversion in human oligodendrocytes cell culture (HPLC-MS); format: in vitro ADME
Method: as §4, §5
9CDHRA levels including standard deviation in human oligodendrocytes cultures were assessed using HPLC-MS analysis after control treatment using ethanol (CTRL), as well as ATROL treatment (ATROL), 9CBC treatments (9CBC), ATBC treatments (ATBC), 9CDHBC treatment (9CDHBC), 9CDHROL treatments (9CDHROL), 9CDHROL-ester treatments (9CDHROL-ES), 9CDHRA treatments (9CDHRA) or 9CDHRA-ester treatments (9CDHRA-ES), each with 10^−6M concentration and n=3 (FIG. 14D).

[6] = after column chromatography
[7] = system: hRARα, β and γ LBDs; assay: ESI-MS in non-denaturing conditions, binding to RAR LBD isotypes; set-up: species or system human; conditions: 5-fold molar excess of ligand
Method: (§6) cDNAs encoding hRXRα LBD (223-462), hRARα LBD (153-421), hRARBβ LBD (169-414) and hRARγ LBD (178-423) were cloned into pET28b vector to generate N-terminal Histag fusion proteins. Purification was carried out as previously described [Lippert W P et al. 2009, Osz J, et al. 2012], including a metal affinity chromatography and a gel filtration. For details of sample preparation and ESI-MS analyses see below.
cDNAs encoding hRXRαLBD (223-462), hRARαLBD (153-421), hRARβLBD (169-414) and hRARγ LBD (178-423) were cloned into pET28b vector to generate N-terminal His-tag fusion proteins. Purification was carried out as previously described [Lippert W P et al. 2009, Osz J, et al. 2012], including a metal affinity chromatography and a gel filtration. Prior to ESI-MS analysis, samples were desalted on Zeba Spin desalting columns (Pierce) in 150 mM ammonium acetate (pH 8.0). ESI-MS measurements were performed on an electrospray time-of-flight mass spectrometer (MicrOTOF, Bruker Daltonics). Purity and homogeneity of the proteins were verified by mass spectrometry in denaturing conditions (samples were diluted at 2 pmol/μl in a 1:1 water-acetonitrile mixture (v/v) acidified with 1% formic acid). The mass measurements of the noncovalent complexes were performed in ammonium acetate (200 mM; pH 8.0). […]

[8] = system: differentiating monocyte-derived human dendritic cells; assay: DNA microarray in differentiating monocyte-derived dendritic cells; format: cell-based
Method: The generation and transcriptional analysis of differentiating DCs were performed as described previously [Szeles L et al. 2010]. Microarray data were deposited into the Gene Expression Omnibus database under accession no. GSE48573.
The generation and analysis of differentiating DCs were performed as described previously [Szeles L et al. 2010] with minor modifications. Briefly, human monocytes were isolated from healthy volunteer's buffy coat, obtained with a Regional Ethical Board permit from the Regional Blood Bank and isolated by Ficoll gradient centrifugation followed by immunomagnetic cell separation, and were cultured in the presence of GM-CSF and IL-4. Differentiating DCs were stimulated 18 h after […] by various agonists for 12 h. The ligands were used in the following concentrations: 10 μM (R)-9CDHRA, 10 μM (S)-9CDHRA, 1 μM 9cisRA, 100 nM LG100268, 1 μM GW3965, 1 μM Rosiglitazone (RSG), 1 μM GW1516, 100 nM AM580. Experiments were performed in biological triplicates. Samples were processed and hybridized to Human Genome U133 Plus 2.0 Arrays. Data were analysed using to GeneSpring 12.6.1 software. In detail, normalization was performed using RMA summarization algorithm. […] Microarray data were deposited into the Gene Expression Omnibus database under accession no. GSE48573.

[9] = target: T1, hRXRα LBD (Homo sapiens, UniProt P19793); assay: ESI-MS in non-denaturing conditions, binding to RXR LBD; set-up: cDNAs encoding hRXRα LBD (223-462); His-tag (N); made in house; conditions: 5-fold molar excess of ligand
T1 sequence (P19793 223-462): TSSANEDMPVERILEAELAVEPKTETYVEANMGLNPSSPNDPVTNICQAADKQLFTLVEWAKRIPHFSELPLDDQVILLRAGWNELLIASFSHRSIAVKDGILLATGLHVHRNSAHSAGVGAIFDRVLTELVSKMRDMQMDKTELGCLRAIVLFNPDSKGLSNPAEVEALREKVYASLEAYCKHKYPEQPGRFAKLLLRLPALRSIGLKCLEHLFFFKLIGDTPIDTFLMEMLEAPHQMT
Method: as §6
cDNAs encoding hRXRαLBD (223-462), hRARαLBD (153-421), hRARβLBD (169-414) and hRARγ LBD (178-423) were cloned into pET28b vector to generate N-terminal His-tag fusion proteins. Purification was carried out as previously described [Lippert W P et al. 2009, Osz J, et al. 2012], including a metal affinity chromatography and a gel filtration. Prior to ESI-MS analysis, samples were desalted on Zeba Spin desalting columns (Pierce) in 150 mM ammonium acetate (pH 8.0). ESI-MS measurements were performed on an electrospray time-of-flight mass spectrometer (MicrOTOF, Bruker Daltonics). Purity and homogeneity of the proteins were verified by mass spectrometry in denaturing conditions (samples were diluted at 2 pmol/μl in a 1:1 water-acetonitrile mixture (v/v) acidified with 1% formic acid). The mass measurements of the noncovalent complexes were performed in ammonium acetate (200 mM; pH 8.0). Samples were diluted to 8 pmol/ml in the previous buffer and continuously infused into the ESI ion source at a flow rate of […] through a Harvard syringe pump (Harvard Apparatus model 11). A careful optimization of the interface parameters was performed to obtain the best sensitivity and spectrum quality without affecting the noncovalent complexes stability. In particular, the capillary exit (CE) ranged from 60 to 150 V with a vacuum interface pressure of 2.3 mbar and was set to 80 V. For ligand-interaction analysis, ligands were added to the proteins in a 5-fold molar excess.

[10] = per os 40 mg/kg, 11 h after treatment

Structure (SMILES)	immobility time in the forced swim test [1]	sucrose preference (anhedonia) [2]	ATROL levels in mouse organs after treatment ([3]; oral gavage 40 mg/kg)	9CDHRA levels in serum, brain and liver after treatment (conversion to 9CDHRA) [3, 10]	9CDHROL levels in serum, brain and liver after treatment [3, 10]	ATROL levels in cells after treatment ([4]; 10^−6M)	9CDHROL levels in cells after treatment ([4]; 10^−6 M, 18 hours)	9CBC in cells after treatment ([4]; 411 nm detection, retention time 26.1 min)	9CDHBC peak in cells after treatment ([4]; UV detection at 366 nm, retention time 25.1 min)	conversion to 9CDHRA ([4]; data not shown)	9CDHRA levels in cells after treatment (metabolism / accumulation) ([5]; 10^−6M, n=3)	precursor substrate of 9CDHROL ([5]; in vitro)	stability of the isolated product [6]	binding to RAR LBD isotypes in ESI-MS [7]	overlap in transcriptional changes with 9CRA [8]	expression of genes that are direct targets of RXR permissive heterodimers (LXR-RXR, PPAR-RXR) and RAR-RXR ([8]; 9CDHRA 10 μM, 9CRA 1 μM, LG268 100 nM, GW3965 1 μM, RSG 1 μM, GW1516 1 μM, AM580 100 nM)	binding to RXR LBD in ESI-MS [9]
CC1=C(/C=C/C(C)=C\C=C\[C@H](C)C/C=C/C=C(C)/C=C/C=C(C)/C=C/C2=C(C)CCCC2(C)C)C(C)(C)CCC1 (stereo in doubt) [9CDHBC, (R)-9-cis-13,14-Dihydro-β,β-carotene]	decreased such immobility; also recorded: efficiently normalised immobility time	prevented; also recorded: Anhedonia was abolished	no metabolic conversion	moderate but significant increase	did not increase	a low conversion or induced increase	increases; also recorded: moderately	no 9CBC could be detected	even higher peak was conclusively detected	not converted to 9CDHRA	not converted to 9CDHRA	excellent precursor substrates	very unstable and easily degraded	–	–	–	–
CC1=C(/C=C/C(C)=C\C=C\[C@@H](C)CC(=O)O)C(C)(C)CCC1 [(S)-9CDHRA, (9Z,13S)-13,14-Dihydroretinoic Acid]	–	–	–	–	–	–	–	–	–	–	–	–	–	bind to all RAR LBD isotypes	about 80%	induced the expression of genes	lower affinity
